# Results as given in paper PMC7596181 (Frontiers in Immunology, 2020).
# pIC50: −log10 of the molar value.
# Legend:
# Assay type in all cases: cell-based
# [1] = tested on: human THP-1 cells; assay: TNFα secretion (ELISA) by THP-1 cells; settings: THP-1, PMA-treated, 18-24 h
# Method: (§1) Human and mouse HEK-Blue reporter cells express human or mouse CD14, MD2, and TLR4 and secreted embryonic alkaline phosphatase (SEAP) under control of a promoter with binding sites for NFκB and AP-1 transcription factors (InvivoGen cat. nos. hkb-htlr4 and hkb-mtlr4). Cells were cultured as directed by the supplier, with the exception that Glutamax (ThermoFisher cat. no. 10569010) was used in place of L-glutamine, and TrypLE Express (ThermoFisher cat. no. 12605010) was used to release adherent cells for each passage. […]
# (§2) ELISA was performed to measure TNFα secretion by cell-lines and primary cells exposed to TLR4 reagents as a measure of receptor activation. […] Human or mouse TNα was quantified using ELISA kits as directed by the kit supplier (eBioscience cat. nos. 88-7324-77 and 88-7324-88, respectively) using an Emax plate reader and SoftMax Pro analytical software (Molecular Devices, LLC). […]
# (§3) Pharmacological profiles of the TLR4 reagents were generated by performing dose response curves in one of four formats. 1) Agonist potency and efficacy (EC50 and height of dose plateau, respectively) were measured by diluting TLR4 reagents successively in complete culture medium [DMEM or RPMI supplemented with fetal bovine serum (FBS) or RPMI supplemented with human serum, depending on cell-type]. […]
# [2] = tested on: mouse RAW264.7 cells; assay: TNFα secretion (ELISA) by RAW264.7 cells; settings: RAW264.7, 18-24 h
# Method: as §1, §2, §3
# [3] = target: T1, human TLR4 (Homo sapiens, UniProt O00206+Q9Y6Y9); assay: Inhibition curves (IC50 format): antagonist diluted in a fixed concentration of reference agonist, human TLR4 HEK-Blue SEAP; parameters: host or cells: HEK-Blue (HEK293-derived) reporter cells; settings: for inhibition of PHAD stimulation: fixed PHAD 1 μM, 22 h; for inhibition of 3D-6A-PHAD stimulation: fixed 3D-6A-PHAD 300 nM; for pIC50: 95% CI given
# T1 sequence (O00206 24-839): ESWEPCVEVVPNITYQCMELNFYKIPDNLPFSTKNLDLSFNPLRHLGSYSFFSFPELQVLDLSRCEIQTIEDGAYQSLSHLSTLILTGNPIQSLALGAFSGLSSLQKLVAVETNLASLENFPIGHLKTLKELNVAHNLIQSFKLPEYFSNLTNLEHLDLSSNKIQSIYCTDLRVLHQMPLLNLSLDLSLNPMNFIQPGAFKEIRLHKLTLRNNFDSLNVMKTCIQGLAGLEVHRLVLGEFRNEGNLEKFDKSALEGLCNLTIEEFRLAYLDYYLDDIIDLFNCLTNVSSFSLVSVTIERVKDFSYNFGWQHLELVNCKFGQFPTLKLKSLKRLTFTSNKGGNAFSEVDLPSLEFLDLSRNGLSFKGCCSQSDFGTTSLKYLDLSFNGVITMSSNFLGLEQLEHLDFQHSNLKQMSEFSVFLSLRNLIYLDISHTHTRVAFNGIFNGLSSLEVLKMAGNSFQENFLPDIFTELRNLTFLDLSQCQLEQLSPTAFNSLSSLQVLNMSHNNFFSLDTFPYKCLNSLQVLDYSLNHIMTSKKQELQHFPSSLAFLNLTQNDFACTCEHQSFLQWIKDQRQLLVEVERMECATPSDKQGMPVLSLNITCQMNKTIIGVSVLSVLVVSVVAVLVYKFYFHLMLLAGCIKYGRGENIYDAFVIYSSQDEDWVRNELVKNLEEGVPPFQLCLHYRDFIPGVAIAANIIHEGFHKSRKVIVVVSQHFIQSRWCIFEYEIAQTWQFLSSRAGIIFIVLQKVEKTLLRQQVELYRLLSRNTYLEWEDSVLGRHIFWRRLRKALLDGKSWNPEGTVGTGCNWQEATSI
# T1 sequence (Q9Y6Y9 17-160 limits assumed): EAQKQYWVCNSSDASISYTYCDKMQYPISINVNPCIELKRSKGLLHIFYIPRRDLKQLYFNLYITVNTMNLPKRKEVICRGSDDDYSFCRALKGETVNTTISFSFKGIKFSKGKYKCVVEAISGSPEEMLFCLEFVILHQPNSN
# Method: (§4) SEAP assays were performed to evaluate the extent to which TLR4 signaling was activated in HEK-Blue reporter cells expressing mouse or human receptors (CD14, MD2 and TLR4). Reporter cells were harvested when 70–80% confluent and plated in 96-well, flat-bottom microtiter plates either 1 h, one day or two days (5 × 10^4, 4 × 10^4 or 2 × 10^4 cells/well, respectively) before addition of TLR4 agonists for 18–24 h. Culture supernatants were transferred to U-bottom microtiter plates, centrifuged and transferred again to microtiter plates to ensure reporter cells were not present. The culture supernatants were added to QUANTI-BLUE substrate following instructions provided by the manufacturer (InvivoGen cat. nos. rep-qbl or rep-qbs) and incubated at 37°C in a tissue culture incubator. At successive intervals beginning 10 min after mixing the supernatants and substrate, the plates were placed in an Emax plate reader (Molecular Devices LLC) and optical density was measured at visible light wavelength […] (OD650). The shortest incubations at which dose response curve fits produced maximal R^2 ‘goodness of fit’ values, as determined by GraphPad Prism software, were used for analysis.
# Pharmacological profiles of the TLR4 reagents were generated by performing dose response curves in one of four formats. 1) Agonist potency and efficacy (EC50 and height of dose plateau, respectively) were measured by diluting TLR4 reagents successively in complete culture medium [DMEM or RPMI supplemented with fetal bovine serum (FBS) or RPMI supplemented with human serum, depending on cell-type]. Half-log step dilutions were performed in 96-well, U-bottom microtiter plates using a multichannel pipette to transfer and mix the suspensions, with fresh tips used for each dilution step. One-tenth (20 μl) volumes from wells of the dilution plate were then transferred to wells containing cells that had been plated in nine-tenth volumes (180 μl) of culture medium. 2) Mixed agonist–antagonist potency and efficacy were measured by mixing a TLR4 agonist with a candidate antagonist at a fixed ratio and then performing half-log step dilutions before treating HEK reporter cells. Analysis of values obtained from SEAP assays of culture supernatants was then performed as described for preparations containing agonist alone, above. 3) Competitive vs allosteric or non-competitive antagonist type was evaluated by diluting a reference agonist within a fixed concentration of a candidate inhibitor in half-log steps, treating HEK reporter cells, performing SEAP assays and then analyzing the data as described for agonist assays, above. Competitive antagonists are characterized by values that reach the same dose plateau as for a reference, full agonist, while shifting potency to higher EC50 values. […] 4) Inhibitory potency (IC50) was measured by diluting antagonists within a fixed concentration of a reference agonist, treating HEK reporter cells and performing SEAP assays as described.
# [4] = target: T1, human TLR4; assay: Competitive vs non-competitive antagonist type: agonist diluted in a fixed concentration of inhibitor, human TLR4 HEK-Blue SEAP; parameters: host or cells: HEK-Blue (HEK293-derived) reporter cells; settings: fixed ML3 3 μM, ML4A 3 μM or Lipid IVa 0.1 μM; agonist PHAD or 3D-6A-PHAD diluted from 10 μM
# Method: as §4
# Pharmacological profiles of the TLR4 reagents were generated by performing dose response curves in one of four formats. 1) Agonist potency and efficacy (EC50 and height of dose plateau, respectively) were measured by diluting TLR4 reagents successively in complete culture medium [DMEM or RPMI supplemented with fetal bovine serum (FBS) or RPMI supplemented with human serum, depending on cell-type]. […] 2) Mixed agonist–antagonist potency and efficacy were measured by mixing a TLR4 agonist with a candidate antagonist at a fixed ratio and then performing half-log step dilutions before treating HEK reporter cells. […] 4) Inhibitory potency (IC50) was measured by diluting antagonists within a fixed concentration of a reference agonist, treating HEK reporter cells and performing SEAP assays as described.
Compound,"agonist profile, TNFα production [1]","agonist profile, TNFα production [2]",inhibition of PHAD stimulation [3],antagonist type [4],inhibition of 3D-6A-PHAD stimulation [3],pIC50 ([3]; fixed PHAD 30 nM),"extent of inhibition at high dose ([3]; fixed PHAD 30 nM, peak dose 31.6 μM)"
CCCCCCCCCCCCCCCC(=O)OC(CCCCCCCCCCC)CC(=O)NC1C(O)OC(COC2OC(CO)C(OP(=O)(O)O)C(O)C2NC(=O)CC(CCCCCCCCCCC)OC(=O)CCCCCCCCCCC)C(O)C1O (centres unmarked) [ML4B],largely inactive,largely inactive,only ML3 and ML4A showed inhibitory potential,,,,
CCCCCCCCCCCC(=O)OC(CCCCCCCCCCC)CC(=O)NC1C(OCC2OC(O)C(NC(=O)CC(O)CCCCCCCCCCC)C(O)C2O)OC(CO)C(OP(=O)(O)O)C1O (centres unmarked) [ML3],largely inactive,largely inactive,showed inhibitory potential,competitive antagonists of human TLR4,functioned as inhibitors,5.88,
CCCCCCCCCCCC(=O)OC(CCCCCCCCCCC)CC(=O)NC1C(OCC2OC(O)C(NC(=O)CC(O)CCCCCCCCCCC)C(O)C2O)OC(CO)C(OP(=O)(O)O)C1OC(=O)CC(O)CCCCCCCCCCC (centres unmarked) [ML4A],,,showed inhibitory potential,competitive antagonists of human TLR4,functioned as inhibitors,6.40,approach a bottom plateau rather than achieving full inhibition
